This passage reports inhibition results from ChEMBL document CHEMBL6103653, “Alstolarsines A-E, Indoline Alkaloids with Two Different Carbon Skeletons from Alstonia scholaris” (J Nat Prod, 2025).

Test [1] is filed under the species Homo sapiens. Nature of the test: Inhibition of DRAK2 autophosphorylation (unknown origin) at 20 microg/ml by ADP-Glo assay relative to control. To be noted: dose 20.0 µg/ml.
In test [2] the target is T1, ATP-citrate synthase (Homo sapiens) (UniProt P53396).
T1 sequence (whole entry): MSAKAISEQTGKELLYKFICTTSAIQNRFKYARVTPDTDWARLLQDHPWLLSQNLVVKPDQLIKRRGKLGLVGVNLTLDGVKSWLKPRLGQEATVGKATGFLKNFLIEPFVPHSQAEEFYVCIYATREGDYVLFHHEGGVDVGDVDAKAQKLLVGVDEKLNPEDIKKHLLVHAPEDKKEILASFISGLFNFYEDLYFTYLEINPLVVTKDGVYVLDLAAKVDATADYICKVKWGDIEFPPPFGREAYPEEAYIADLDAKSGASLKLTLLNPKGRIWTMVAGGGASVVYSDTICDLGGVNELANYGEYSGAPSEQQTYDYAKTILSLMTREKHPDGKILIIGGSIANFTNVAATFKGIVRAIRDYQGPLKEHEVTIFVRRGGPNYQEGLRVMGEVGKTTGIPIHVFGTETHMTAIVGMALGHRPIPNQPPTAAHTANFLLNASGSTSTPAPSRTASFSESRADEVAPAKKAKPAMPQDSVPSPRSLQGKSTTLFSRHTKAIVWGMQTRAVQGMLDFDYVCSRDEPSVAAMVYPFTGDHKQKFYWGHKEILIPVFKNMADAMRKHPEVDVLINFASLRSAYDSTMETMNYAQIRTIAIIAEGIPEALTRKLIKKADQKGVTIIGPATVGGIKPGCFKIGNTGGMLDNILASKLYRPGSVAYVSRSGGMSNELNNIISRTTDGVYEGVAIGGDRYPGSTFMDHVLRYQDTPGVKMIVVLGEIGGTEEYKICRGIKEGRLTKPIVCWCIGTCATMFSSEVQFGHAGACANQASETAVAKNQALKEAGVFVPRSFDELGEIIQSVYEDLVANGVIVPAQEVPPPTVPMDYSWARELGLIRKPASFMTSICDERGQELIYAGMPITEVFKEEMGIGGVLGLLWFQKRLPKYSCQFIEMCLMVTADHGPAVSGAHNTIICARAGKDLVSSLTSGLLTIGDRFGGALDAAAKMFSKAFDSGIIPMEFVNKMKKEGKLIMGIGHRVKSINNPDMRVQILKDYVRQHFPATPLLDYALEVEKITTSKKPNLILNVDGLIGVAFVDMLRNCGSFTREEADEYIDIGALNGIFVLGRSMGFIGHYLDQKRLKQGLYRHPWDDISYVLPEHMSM
Nature of the test: Inhibition of ATP citrate lyase (unknown origin) at 20 microg/ml by ADP-Glo assay relative to control. To be noted: dose 20.0 µg/ml. A general note: In ADP-Glo the light output rises with the ADP produced.

A word on the inhibition: it is the drop in the measured response relative to a control, in per cent. `C/C=C1/C[N@@+]2(C)CC[C@@]34c5ccccc5N[C@]32C(=O)[C@@H]2COC[C@@]4(C(=O)[O-])[C@H]12`: the inhibition in test [1] stood at 47.7%; in test [2], 49.2%.
Regarding `C/C=C1/C[N@@+]2(C)CC[C@@]34c5ccccc5N[C@]32C(=O)[C@]2(C)OC[C@@]4(C(=O)[O-])[C@H]12`, the inhibition stood at 4.5% in test [1] and 5.5% in test [2].
In the same order, the values of `C/C=C1/C[N@@+]2(C)CC[C@@]34c5ccccc5N[C@]32C(=O)[C@H]2[C@@H]1[C@]4(C(=O)[O-])CO[C@@H]2C` are 49.2% and 17%.
In the same order, the values of `C/C=C1/C[N@@+]2(C)CC[C@@]34c5ccccc5N[C@]32C(=O)[C@@H]2[C@H](C)OC[C@@]4(C(=O)[O-])[C@H]12` are 16.5% and 5.1%.
